Measurements from patent publication US12569468B2, “Use of palovarotene in treatment against HBV virus” (YANG SHENG TANG COMPANY, LTD., priority 2020, dated 2026).

Test system: HBV
Experiment: Inhibitory effect on HBV infection in infection model HepaRG M14A (drug before infection)
Assay type: cell-based, hepatitis B virus
Details: 1, 5, 25 μM, treatment before infection
Protocol: HepaRG was a hepatic progenitor cell line with differentiation potential which was isolated from the tumor tissue of a hepatitis C patient. After two weeks of cell plating, the cellular differentiation was induced with 2% DMSO (2 mL of DMSO was added to per 100 mL of cell culture medium) for two weeks. Finally, about 50% of the cells differentiated into hepatocyte-like cells, and the other 50% of the cells differentiated into cholangiocyte-like cells. Among them, hepatocyte-like cells supported HBV infection with an infection efficiency of about 20%. Through genetic modification of HepaRG, the HNF4A and FoxM1 genes were integrated into HepaRG cells, and a HepaRG M14A cell line that could complete differentiation and support HBV infection independent of DMSO was obtained by screening. (For the construction method of this cell model, please refer to: Zhao Jinghua. Development, Optimization and Preliminary Application of in vitro models supporting HBV Infection [D]. Xiamen University, 2016.)
This experiment was carried out in a 24-well cell culture plate. […] About 1.5×10^5 HepaRG M14A cells were plated in each well, and 500 μL of medium D was added to each well. After cell plating, medium D was replaced every 2 days. After 13 days of cell plating, medium D was replaced with drug-containing medium D for drug treatment. After 24 hours of drug treatment, the cells were infected with HBV, and the amount of HBV for infection in each well was 1000 MOI. Before infection, an HBV solution was obtained by diluting HBV in medium E, and the infection volume was 250 μL per well. During infection, the cell supernatant was first removed by suction, the HBV solution was added to the cells, then the cells were incubated for 24 hours, and then the supernatant was collected as the sample of Day 0. Then, the cells were washed three times with PBS warmed in bath at 37° C., and fresh drug-containing medium D (500 μL per well) was used for replacement, then the supernatant was collected every 2 days for detection, and fresh drug-containing medium D was used for replacement, until the 8th day, all the supernatant and cells were collected for related detection. The detection items include HBsAg, HBeAg, HBV DNA, HBV cccDNA, and for the detection method, please refer to Example 1.

CC1(C)CCC(C)(C)c2cc(Cn3cccn3)c(/C=C/c3ccc(C(=O)O)cc3)cc21 [Palovarotene]
significantly reduce: level of intracellular HBV DNA (to day 8, p<0.0001) | level of intracellular cccDNA (to day 8, p<0.0001) | level of HBeAg in cell supernatant (to day 8, p<0.05) | level of HBsAg in cell supernatant (to day 8, p<0.05)
